{"source": "patent US11434198B2", "about": "“Compounds and methods for the treatment of neurodegenerative diseases” (Resilio Therapeutics, LLC, priority 2016, dated 2022)", "assay": "pH stability of prodrugs of DFMO in PBS buffer", "type": "physicochemical", "conditions": "for intact prodrug lost over the next 24 hours: 24 hours following the initial phase; for decrease in the amount of intact, non-degraded prodrug over the first hour of incubation: LC/MS/MS", "description": "The stability of prodrugs of DFMO to different pH conditions over time was assayed. Prodrugs were reconstituted in dimethylsulfoxide (DMSO), diluted into phosphate buffered saline (PBS) of different pH values, incubated for different lengths of time at room temperature, and then analyzed by LC/MS/MS for changes in the levels of each prodrug. […] Following this initial phase, the (2)-prodrug was reasonably stable over the next 24 hours so that less than 20% of the intact prodrug was lost at pH 3 and 5, and about 60% of the intact material was lost at pH 8 over a day. […] Similar results were obtained with the other prodrugs tested."}
{"smiles": "CC(OC(=O)NCCCC(N)(C(=O)O)C(F)F)OC(=O)C(C)C", "note": "(stereo not shown) [(2)-prodrug, 2-amino-2-(difluoromethyl)-5-[1-(2-methylpropanoyloxy)ethoxycarbonylamino]pentanoic acid]", "values": [{"measurement": "stability of intact, non-degraded prodrug over time at different pH (in words)", "setting": "PBS of different pH values, room temperature", "value": "slowly lost"}, {"measurement": "intact prodrug lost over the next 24 hours", "setting": "PBS pH 3, room temperature", "value": "less than 20%"}, {"measurement": "decrease in the amount of intact, non-degraded prodrug over the first hour of incubation", "setting": "PBS pH 3, room temperature", "value": "about 60%"}, {"measurement": "intact prodrug lost over the next 24 hours", "setting": "PBS pH 5, room temperature", "value": "less than 20%"}, {"measurement": "decrease in the amount of intact, non-degraded prodrug over the first hour of incubation", "setting": "PBS pH 5, room temperature", "value": "30-35%"}, {"measurement": "intact prodrug lost over the next 24 hours", "setting": "PBS pH 8, room temperature", "value": "about 60%"}, {"measurement": "decrease in the amount of intact, non-degraded prodrug over the first hour of incubation", "setting": "PBS pH 8, room temperature", "value": "30-35%"}]}
